How the values were obtained:
[1] = target: IGF1R (Homo sapiens, UniProt P08069); test: biochemical; conditions: read-out: % enzyme activity, 1 μM; Run 1, Run 2
[2] = target: T1, PRKX (Homo sapiens, UniProt P51817); test: biochemical; conditions: read-out: % enzyme activity, 1 μM; Run 1, Run 2
T1 sequence (P51817 1-358): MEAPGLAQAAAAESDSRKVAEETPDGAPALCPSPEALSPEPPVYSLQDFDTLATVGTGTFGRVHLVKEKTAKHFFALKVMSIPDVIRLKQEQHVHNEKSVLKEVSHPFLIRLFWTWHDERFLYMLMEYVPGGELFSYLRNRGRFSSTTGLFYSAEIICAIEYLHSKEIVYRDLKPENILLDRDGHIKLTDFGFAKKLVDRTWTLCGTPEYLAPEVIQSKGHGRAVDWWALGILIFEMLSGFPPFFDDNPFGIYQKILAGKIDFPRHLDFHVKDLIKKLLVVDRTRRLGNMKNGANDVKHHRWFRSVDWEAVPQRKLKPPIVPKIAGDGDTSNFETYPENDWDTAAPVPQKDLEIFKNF

[3] = target: CK1d (Homo sapiens, UniProt P48730); conditions: 1 μM; Run 1, Run 2
[4] = target: T2, MKK4 (Homo sapiens, UniProt P45985); conditions: 1 μM; Run 1, Run 2
T2 sequence (P45985 1-399): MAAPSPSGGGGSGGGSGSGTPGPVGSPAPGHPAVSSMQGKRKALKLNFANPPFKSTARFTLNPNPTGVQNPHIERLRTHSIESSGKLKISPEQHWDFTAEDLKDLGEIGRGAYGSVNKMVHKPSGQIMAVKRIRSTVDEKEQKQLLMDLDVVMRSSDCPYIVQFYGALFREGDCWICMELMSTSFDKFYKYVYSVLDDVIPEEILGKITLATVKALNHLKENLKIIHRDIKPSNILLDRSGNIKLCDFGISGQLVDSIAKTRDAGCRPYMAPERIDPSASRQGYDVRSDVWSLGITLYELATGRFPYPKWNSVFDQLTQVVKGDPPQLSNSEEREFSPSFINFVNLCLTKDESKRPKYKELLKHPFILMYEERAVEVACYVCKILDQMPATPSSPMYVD

[5] = target: T3, P38d/MAPK13 (Homo sapiens, UniProt O15264); test: biochemical; conditions: read-out: % enzyme activity, 1 μM; Run 1, Run 2
T3 sequence (O15264 1-365): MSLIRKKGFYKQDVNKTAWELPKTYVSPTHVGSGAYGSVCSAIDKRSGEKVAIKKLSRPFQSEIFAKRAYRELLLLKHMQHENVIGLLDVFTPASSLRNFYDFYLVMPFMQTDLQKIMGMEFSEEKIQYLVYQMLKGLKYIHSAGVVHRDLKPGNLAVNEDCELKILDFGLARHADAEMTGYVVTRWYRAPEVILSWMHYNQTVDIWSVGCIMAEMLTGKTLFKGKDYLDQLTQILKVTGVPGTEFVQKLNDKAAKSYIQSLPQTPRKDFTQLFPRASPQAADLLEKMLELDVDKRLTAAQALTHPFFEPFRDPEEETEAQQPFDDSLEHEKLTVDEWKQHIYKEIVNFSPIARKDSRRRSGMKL

[6] = target: T4, GCK/MAP4K2 (Homo sapiens, UniProt Q12851); test: biochemical; conditions: read-out: % enzyme activity, 1 μM; Run 1, Run 2
T4 sequence (Q12851 1-820): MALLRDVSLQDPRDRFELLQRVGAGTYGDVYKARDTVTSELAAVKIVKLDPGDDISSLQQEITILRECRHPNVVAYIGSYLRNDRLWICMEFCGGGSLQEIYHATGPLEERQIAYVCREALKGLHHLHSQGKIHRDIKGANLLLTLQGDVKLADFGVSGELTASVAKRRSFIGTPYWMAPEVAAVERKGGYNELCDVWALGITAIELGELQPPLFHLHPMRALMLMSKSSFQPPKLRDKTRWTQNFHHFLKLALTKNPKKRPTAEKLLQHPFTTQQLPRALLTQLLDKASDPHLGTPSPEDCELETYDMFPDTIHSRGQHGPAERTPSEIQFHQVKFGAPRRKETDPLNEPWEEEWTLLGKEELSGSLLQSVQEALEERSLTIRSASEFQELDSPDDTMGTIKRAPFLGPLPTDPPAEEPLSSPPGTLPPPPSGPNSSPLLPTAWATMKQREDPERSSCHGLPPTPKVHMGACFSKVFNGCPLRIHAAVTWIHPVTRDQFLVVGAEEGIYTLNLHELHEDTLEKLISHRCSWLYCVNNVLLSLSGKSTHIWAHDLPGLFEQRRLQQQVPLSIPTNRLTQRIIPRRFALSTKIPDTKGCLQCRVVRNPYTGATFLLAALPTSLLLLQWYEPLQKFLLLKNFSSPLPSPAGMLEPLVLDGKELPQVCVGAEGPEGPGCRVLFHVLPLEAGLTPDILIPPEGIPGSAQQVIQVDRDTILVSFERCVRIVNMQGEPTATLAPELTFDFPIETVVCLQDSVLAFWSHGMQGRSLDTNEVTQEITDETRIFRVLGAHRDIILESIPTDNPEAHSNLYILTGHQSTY

[7] = target: CDK16/cyclin Y (PCTAIRE) (Homo sapiens, UniProt Q00536); test: biochemical; conditions: read-out: % enzyme activity, 1 μM; Run 1, Run 2
[8] = target: SBK1 (Homo sapiens, UniProt Q52WX2); test: biochemical; conditions: read-out: % enzyme activity, 1 μM; Run 1, Run 2
[9] = target: CAMK1b (Homo sapiens, UniProt Q6P2M8); test: biochemical; conditions: read-out: % enzyme activity, 1 μM; Run 1, Run 2
[10] = target: IRR/INSRR (Homo sapiens, UniProt P14616); conditions: 1 μM; Run 1, Run 2
[11] = target: FGFR3 (Homo sapiens, UniProt P22607); test: biochemical; conditions: read-out: % enzyme activity, 1 μM; Run 1, Run 2
[12] = target: CDK1/cyclin E (Homo sapiens, UniProt P06493); test: biochemical; conditions: read-out: % enzyme activity, 1 μM; Run 1, Run 2
[13] = target: ROS/ROS1 (Homo sapiens, UniProt P08922); conditions: 1 μM; Run 1, Run 2

Sequence of IRR/INSRR (P14616 27-1297): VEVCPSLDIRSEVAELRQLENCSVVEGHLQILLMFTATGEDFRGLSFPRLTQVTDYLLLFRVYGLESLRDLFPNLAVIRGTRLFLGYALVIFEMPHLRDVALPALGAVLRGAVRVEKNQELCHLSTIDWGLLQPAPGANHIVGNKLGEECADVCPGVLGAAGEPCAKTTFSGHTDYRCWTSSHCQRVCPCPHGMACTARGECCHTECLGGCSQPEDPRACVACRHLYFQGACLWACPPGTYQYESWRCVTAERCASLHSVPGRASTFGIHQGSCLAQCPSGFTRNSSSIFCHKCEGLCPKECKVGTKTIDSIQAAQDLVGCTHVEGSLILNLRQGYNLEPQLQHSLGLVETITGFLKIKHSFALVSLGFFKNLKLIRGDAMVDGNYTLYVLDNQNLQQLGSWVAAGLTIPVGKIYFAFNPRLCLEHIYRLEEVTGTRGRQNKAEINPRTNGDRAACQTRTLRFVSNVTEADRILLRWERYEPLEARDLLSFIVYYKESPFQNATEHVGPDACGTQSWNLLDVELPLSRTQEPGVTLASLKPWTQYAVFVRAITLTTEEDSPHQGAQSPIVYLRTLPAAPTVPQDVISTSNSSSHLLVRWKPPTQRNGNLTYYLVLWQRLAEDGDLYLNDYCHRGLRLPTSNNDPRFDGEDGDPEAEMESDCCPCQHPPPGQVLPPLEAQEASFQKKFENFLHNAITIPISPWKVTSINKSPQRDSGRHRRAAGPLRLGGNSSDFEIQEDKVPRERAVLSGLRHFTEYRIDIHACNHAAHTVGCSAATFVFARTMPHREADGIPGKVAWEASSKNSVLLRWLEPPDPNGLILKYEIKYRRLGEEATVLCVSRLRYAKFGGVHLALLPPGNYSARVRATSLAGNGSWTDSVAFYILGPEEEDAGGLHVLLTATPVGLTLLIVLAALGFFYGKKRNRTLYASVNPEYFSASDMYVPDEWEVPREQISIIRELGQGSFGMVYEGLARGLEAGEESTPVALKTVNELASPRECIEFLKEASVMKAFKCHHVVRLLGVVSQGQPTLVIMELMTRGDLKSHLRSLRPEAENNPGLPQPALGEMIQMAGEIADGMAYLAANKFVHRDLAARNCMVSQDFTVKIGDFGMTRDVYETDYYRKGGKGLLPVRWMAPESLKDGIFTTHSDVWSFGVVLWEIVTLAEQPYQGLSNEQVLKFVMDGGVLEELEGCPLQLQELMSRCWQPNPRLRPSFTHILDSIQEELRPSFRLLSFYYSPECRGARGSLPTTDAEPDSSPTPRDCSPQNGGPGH
Sequence of CAMK1b (Q6P2M8 whole entry): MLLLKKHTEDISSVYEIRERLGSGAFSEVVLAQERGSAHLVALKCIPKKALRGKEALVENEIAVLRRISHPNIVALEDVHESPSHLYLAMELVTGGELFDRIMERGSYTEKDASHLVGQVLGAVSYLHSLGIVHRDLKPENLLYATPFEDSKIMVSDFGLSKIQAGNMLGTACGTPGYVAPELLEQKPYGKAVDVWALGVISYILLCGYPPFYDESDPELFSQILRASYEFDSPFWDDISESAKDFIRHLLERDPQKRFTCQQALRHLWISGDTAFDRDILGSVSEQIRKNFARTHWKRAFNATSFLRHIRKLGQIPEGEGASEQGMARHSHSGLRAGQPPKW
Sequence of FGFR3 (P22607 23-806): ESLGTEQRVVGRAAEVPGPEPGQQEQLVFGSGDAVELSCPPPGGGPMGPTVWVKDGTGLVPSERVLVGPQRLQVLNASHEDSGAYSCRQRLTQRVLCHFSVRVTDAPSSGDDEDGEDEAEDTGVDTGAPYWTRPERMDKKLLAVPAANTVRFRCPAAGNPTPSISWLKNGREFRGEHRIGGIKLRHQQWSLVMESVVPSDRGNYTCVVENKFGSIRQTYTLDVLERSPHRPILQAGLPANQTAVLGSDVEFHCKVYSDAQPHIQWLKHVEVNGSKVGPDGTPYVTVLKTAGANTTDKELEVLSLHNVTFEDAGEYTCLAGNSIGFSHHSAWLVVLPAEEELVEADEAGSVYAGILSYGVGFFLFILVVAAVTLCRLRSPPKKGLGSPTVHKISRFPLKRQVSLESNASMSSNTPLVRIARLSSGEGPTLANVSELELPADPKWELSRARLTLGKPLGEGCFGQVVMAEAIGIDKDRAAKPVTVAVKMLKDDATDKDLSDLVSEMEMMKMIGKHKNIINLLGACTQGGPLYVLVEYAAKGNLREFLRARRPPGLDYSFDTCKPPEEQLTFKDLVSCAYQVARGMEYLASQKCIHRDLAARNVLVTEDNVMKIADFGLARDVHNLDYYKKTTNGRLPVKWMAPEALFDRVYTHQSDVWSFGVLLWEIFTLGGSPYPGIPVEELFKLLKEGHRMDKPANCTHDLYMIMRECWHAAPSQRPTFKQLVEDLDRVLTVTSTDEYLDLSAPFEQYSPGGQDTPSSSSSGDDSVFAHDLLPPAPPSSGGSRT
Sequence of CDK1/cyclin E (P24864 whole entry): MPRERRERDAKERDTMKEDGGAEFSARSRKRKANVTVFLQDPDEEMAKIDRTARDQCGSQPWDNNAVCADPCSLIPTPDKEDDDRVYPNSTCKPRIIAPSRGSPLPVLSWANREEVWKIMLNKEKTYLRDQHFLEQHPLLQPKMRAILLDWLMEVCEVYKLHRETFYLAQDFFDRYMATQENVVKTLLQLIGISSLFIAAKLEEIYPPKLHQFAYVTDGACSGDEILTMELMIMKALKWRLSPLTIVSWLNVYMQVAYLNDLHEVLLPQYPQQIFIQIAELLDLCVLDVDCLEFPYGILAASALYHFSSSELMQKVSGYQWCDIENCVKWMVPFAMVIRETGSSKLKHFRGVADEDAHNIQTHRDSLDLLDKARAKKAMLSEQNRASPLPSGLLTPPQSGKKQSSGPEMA
Sequence of CDK1/cyclin E (P06493 whole entry): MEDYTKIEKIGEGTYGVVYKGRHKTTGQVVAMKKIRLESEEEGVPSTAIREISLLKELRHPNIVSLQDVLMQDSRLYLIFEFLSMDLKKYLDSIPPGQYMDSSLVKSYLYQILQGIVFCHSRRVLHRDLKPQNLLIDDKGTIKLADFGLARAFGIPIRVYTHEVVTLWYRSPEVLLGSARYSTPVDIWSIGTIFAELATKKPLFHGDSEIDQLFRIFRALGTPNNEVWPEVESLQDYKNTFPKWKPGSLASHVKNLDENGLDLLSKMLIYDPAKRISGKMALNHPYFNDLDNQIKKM
Sequence of SBK1 (Q52WX2 whole entry): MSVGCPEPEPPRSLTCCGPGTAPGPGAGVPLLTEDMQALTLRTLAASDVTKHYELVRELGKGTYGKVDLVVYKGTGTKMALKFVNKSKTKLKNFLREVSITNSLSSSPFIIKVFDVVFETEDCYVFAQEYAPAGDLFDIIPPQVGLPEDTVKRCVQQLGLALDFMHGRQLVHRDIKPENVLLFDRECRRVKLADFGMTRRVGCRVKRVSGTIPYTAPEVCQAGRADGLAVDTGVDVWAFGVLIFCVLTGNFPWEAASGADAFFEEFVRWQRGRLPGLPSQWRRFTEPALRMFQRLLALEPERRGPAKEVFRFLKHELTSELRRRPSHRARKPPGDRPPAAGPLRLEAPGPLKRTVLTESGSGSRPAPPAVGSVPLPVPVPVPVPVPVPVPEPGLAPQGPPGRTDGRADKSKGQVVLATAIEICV
Sequence of CDK16/cyclin Y (PCTAIRE) (Q00536 whole entry): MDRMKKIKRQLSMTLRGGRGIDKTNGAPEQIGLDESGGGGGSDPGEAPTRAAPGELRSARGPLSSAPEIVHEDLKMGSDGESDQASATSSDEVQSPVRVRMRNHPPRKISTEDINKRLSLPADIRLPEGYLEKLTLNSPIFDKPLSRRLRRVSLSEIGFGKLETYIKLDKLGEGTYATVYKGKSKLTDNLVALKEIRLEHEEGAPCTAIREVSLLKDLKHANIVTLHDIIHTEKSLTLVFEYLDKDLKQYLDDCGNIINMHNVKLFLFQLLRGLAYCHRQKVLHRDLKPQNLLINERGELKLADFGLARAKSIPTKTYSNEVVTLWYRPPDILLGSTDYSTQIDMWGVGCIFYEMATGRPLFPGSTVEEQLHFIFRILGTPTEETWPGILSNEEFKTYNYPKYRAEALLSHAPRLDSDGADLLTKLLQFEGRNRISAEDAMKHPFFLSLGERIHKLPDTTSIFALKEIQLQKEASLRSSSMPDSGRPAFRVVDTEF
Sequence of CDK16/cyclin Y (PCTAIRE) (Q8ND76 whole entry partner): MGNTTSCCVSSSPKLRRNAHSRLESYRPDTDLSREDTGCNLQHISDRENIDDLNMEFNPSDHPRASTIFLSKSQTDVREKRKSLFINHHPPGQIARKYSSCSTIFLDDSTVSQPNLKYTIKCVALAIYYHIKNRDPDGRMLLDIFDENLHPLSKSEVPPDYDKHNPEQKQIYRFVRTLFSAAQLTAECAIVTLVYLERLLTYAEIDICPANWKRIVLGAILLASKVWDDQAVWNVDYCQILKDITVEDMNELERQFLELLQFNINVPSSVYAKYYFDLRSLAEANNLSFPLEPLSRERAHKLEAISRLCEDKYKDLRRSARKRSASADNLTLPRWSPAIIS
Sequence of CK1d (P48730 whole entry): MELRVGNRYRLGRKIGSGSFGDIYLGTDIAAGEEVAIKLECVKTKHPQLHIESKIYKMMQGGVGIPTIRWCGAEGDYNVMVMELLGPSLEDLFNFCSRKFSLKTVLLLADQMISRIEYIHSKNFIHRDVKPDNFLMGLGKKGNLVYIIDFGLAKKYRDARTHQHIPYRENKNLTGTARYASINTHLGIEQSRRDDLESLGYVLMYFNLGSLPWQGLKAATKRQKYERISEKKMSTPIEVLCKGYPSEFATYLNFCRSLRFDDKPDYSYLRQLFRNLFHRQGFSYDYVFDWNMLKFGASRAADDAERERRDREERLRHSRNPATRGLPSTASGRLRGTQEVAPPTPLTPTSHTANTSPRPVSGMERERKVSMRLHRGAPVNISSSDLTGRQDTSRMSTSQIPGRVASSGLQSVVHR

COc1cc(-c2cncc(-c3ccc(N4CCN(C)CC4)cc3)c2C)cc(F)c1C(N)=O [Compound 26a, 2-Fluoro-6-methoxy-4-(4-methyl-5-(4-(4-methylpiperazin-1-yl)phenyl)pyridin-3-yl)benzamide] was tested, and the remaining activity at 1 µM [1] was 99.2%, the remaining activity at 1 µM [2] was 99.9% and the “% enzyme activity” value [3] was 94.27%. The “% enzyme activity” value [4] was 98.66%, the remaining activity at 1 µM [5] was 101% and the remaining activity at 1 µM [6] was 61.8%. It also gave a remaining activity at 1 µM [7] of 92.8%, a remaining activity at 1 µM [8] of 94.6% and a remaining activity at 1 µM [9] of 97.9%. For the same compound, the “% enzyme activity” value [10] was 99.85%, the remaining activity at 1 µM [11] was 101% and the remaining activity at 1 µM [12] was 98.3%. For the same compound, the “% enzyme activity” value [13] was 86.47%.
COc1cc(-c2cncc(-c3ccc(N4C[C@@H](C)N(C)[C@@H](C)C4)cc3)c2C)cc(F)c1C(N)=O [Compound 26c, 2-Fluoro-6-methoxy-4-(4-methyl-5-(4-((3R,5S)-3,4,5-trimethylpiperazin-1-yl)phenyl)pyridin-3-yl)benzamide] was tested, and the remaining activity at 1 µM [1] was 96.1%, the remaining activity at 1 µM [2] was 91.3% and the “% enzyme activity” value [3] was 108.05%. For the same compound, the “% enzyme activity” value [4] was 93.94%, the remaining activity at 1 µM [5] was 97.7% and the remaining activity at 1 µM [6] was 75.4%. For the same compound, the remaining activity at 1 µM [7] was 91.6%, the remaining activity at 1 µM [8] was 103% and the remaining activity at 1 µM [9] was 99.4%. The “% enzyme activity” value [10] was 113.76%, the remaining activity at 1 µM [11] was 103% and the remaining activity at 1 µM [12] was 92.4%. For the same compound, the “% enzyme activity” value [13] was 95.54%.

— publication PMC8213057, “Targeting ALK2: An Open Science Approach to Developing Therapeutics for the Treatment of Diffuse Intrinsic Pontine Glioma” (Journal of Medicinal Chemistry, 2020)
